Experimental data taken from PubChem BioAssay (NCI).
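Growth conditions: 96-well plates. Treatment: test compound, 48 hours, 5 concentrations. Analysis: linear interpolation between bracketing concentrations; unreached endpoints set to highest concentration. TGI denotes the concentration required for complete inhibition of growth.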

Legend:
Experiment in all cases: NCI-60 cell line screen, 48 h
SF-268 CNS = test system: SF-268 CNS
RPMI-8226 leukemia = test system: RPMI-8226 leukemia
UACC-257 melanoma = test system: UACC-257 melanoma
OVCAR-5 ovarian = test system: OVCAR-5 ovarian
SNB-75 CNS = test system: SNB-75 CNS
NCI-H226 lung = test system: NCI-H226 lung
OVCAR-8 ovarian = test system: OVCAR-8 ovarian
HOP-62 NSCLC = test system: HOP-62 NSCLC
MOLT-4 leukemia = test system: MOLT-4 leukemia
DU-145 prostate = test system: DU-145 prostate
MALME-3M melanoma = test system: MALME-3M melanoma
NCI/ADR-RES ovarian = test system: NCI/ADR-RES ovarian
CCRF-CEM leukemia = test system: CCRF-CEM leukemia
HS 578T breast = test system: HS 578T breast
SN12C renal = test system: SN12C renal
SK-OV-3 ovarian = test system: SK-OV-3 ovarian
MCF7 breast = test system: MCF7 breast
SW-620 colon = test system: SW-620 colon
HOP-92 NSCLC = test system: HOP-92 NSCLC
HCT-15 colon = test system: HCT-15 colon
U251 CNS = test system: U251 CNS
EKVX NSCLC = test system: EKVX NSCLC
HCC-2998 colon = test system: HCC-2998 colon
PC-3 prostate = test system: PC-3 prostate
IGROV1 ovarian = test system: IGROV1 ovarian
T-47D breast = test system: T-47D breast
M14 melanoma = test system: M14 melanoma
SF-295 CNS = test system: SF-295 CNS
SF-539 CNS = test system: SF-539 CNS
SNB-19 CNS = test system: SNB-19 CNS
KM12 colon = test system: KM12 colon
UACC-62 melanoma = test system: UACC-62 melanoma
MDA-N = test system: MDA-N
SR leukemia = test system: SR leukemia
ACHN renal = test system: ACHN renal
BT-549 breast = test system: BT-549 breast
HCT-116 colon = test system: HCT-116 colon
A549 NSCLC = test system: A549 NSCLC
786-0 renal = test system: 786-0 renal
SK-MEL-5 melanoma = test system: SK-MEL-5 melanoma
HT29 colon = test system: HT29 colon
NCI-H23 lung = test system: NCI-H23 lung
K-562 leukemia = test system: K-562 leukemia
HL-60(TB) leukemia = test system: HL-60(TB) leukemia
MDA-MB-435 = test system: MDA-MB-435
NCI-H460 lung = test system: NCI-H460 lung
UO-31 renal = test system: UO-31 renal
OVCAR-3 ovarian = test system: OVCAR-3 ovarian
SK-MEL-2 melanoma = test system: SK-MEL-2 melanoma
SK-MEL-28 melanoma = test system: SK-MEL-28 melanoma
COLO 205 colon = test system: COLO 205 colon
RXF 393 renal = test system: RXF 393 renal
MDA-MB-231 breast = test system: MDA-MB-231 breast
LOX IMVI melanoma = test system: LOX IMVI melanoma
A498 renal = test system: A498 renal
OVCAR-4 ovarian = test system: OVCAR-4 ovarian
CAKI-1 renal = test system: CAKI-1 renal
NCI-H522 lung = test system: NCI-H522 lung
TK-10 renal = test system: TK-10 renal

COc1cc(COC(=O)N2CSCC2C(=O)O)c([N+](=O)[O-])cc1OC (stereo unspecified)
TGI (SF-268 CNS): > 100 µM | TGI (RPMI-8226 leukemia): > 100 µM | TGI (UACC-257 melanoma): > 100 µM | TGI (OVCAR-5 ovarian): > 100 µM | TGI (SNB-75 CNS): > 100 µM | TGI (NCI-H226 lung): > 100 µM | TGI (OVCAR-8 ovarian): > 100 µM | TGI (HOP-62 NSCLC): > 100 µM | TGI (MOLT-4 leukemia): > 100 µM | TGI (DU-145 prostate): > 100 µM | TGI (MALME-3M melanoma): > 100 µM | TGI (NCI/ADR-RES ovarian): > 100 µM | TGI (CCRF-CEM leukemia): > 100 µM | TGI (HS 578T breast): > 100 µM | TGI (SN12C renal): > 100 µM | TGI (SK-OV-3 ovarian): > 100 µM | TGI (MCF7 breast): > 100 µM | TGI (SW-620 colon): > 100 µM | TGI (HOP-92 NSCLC): > 100 µM | TGI (HCT-15 colon): > 100 µM | TGI (U251 CNS): > 100 µM | TGI (EKVX NSCLC): > 100 µM | TGI (HCC-2998 colon): > 100 µM | TGI (PC-3 prostate): > 100 µM | TGI (IGROV1 ovarian): > 100 µM | TGI (T-47D breast): > 100 µM | TGI (M14 melanoma): > 100 µM | TGI (SF-295 CNS): > 100 µM | TGI (SF-539 CNS): > 100 µM | TGI (SNB-19 CNS): > 100 µM | TGI (KM12 colon): > 100 µM | TGI (UACC-62 melanoma): > 100 µM | TGI (MDA-N): > 100 µM | TGI (SR leukemia): > 100 µM | TGI (ACHN renal): > 100 µM | TGI (BT-549 breast): > 100 µM | TGI (HCT-116 colon): > 100 µM | TGI (A549 NSCLC): > 100 µM | TGI (786-0 renal): > 100 µM | TGI (SK-MEL-5 melanoma): > 100 µM | TGI (HT29 colon): > 100 µM | TGI (NCI-H23 lung): > 100 µM | TGI (K-562 leukemia): > 100 µM | TGI (HL-60(TB) leukemia): > 100 µM | TGI (MDA-MB-435): > 100 µM | TGI (NCI-H460 lung): > 100 µM | TGI (UO-31 renal): > 100 µM | TGI (OVCAR-3 ovarian): > 100 µM

O=C1OC(c2ccccc2)=N/C1=C\c1ccc(Br)cc1
TGI (SF-268 CNS): > 100 µM | TGI (RPMI-8226 leukemia): > 100 µM | TGI (SK-MEL-2 melanoma): > 100 µM | TGI (UACC-257 melanoma): > 100 µM | TGI (OVCAR-5 ovarian): > 100 µM | TGI (SNB-75 CNS): > 100 µM | TGI (NCI-H226 lung): > 100 µM | TGI (OVCAR-8 ovarian): > 100 µM | TGI (HOP-62 NSCLC): > 100 µM | TGI (SK-MEL-28 melanoma): > 100 µM | TGI (COLO 205 colon): > 100 µM | TGI (RXF 393 renal): > 100 µM | TGI (MDA-MB-231 breast): > 100 µM | TGI (MOLT-4 leukemia): > 100 µM | TGI (DU-145 prostate): > 100 µM | TGI (MALME-3M melanoma): > 100 µM | TGI (CCRF-CEM leukemia): > 100 µM | TGI (LOX IMVI melanoma): > 100 µM | TGI (A498 renal): > 100 µM | TGI (OVCAR-4 ovarian): > 100 µM | TGI (HS 578T breast): > 100 µM | TGI (SN12C renal): > 100 µM | TGI (SK-OV-3 ovarian): > 100 µM | TGI (MCF7 breast): > 100 µM | TGI (SW-620 colon): > 100 µM | TGI (HOP-92 NSCLC): > 100 µM | TGI (HCT-15 colon): > 100 µM | TGI (U251 CNS): > 100 µM | TGI (EKVX NSCLC): > 100 µM | TGI (HCC-2998 colon): > 100 µM | TGI (PC-3 prostate): > 100 µM | TGI (IGROV1 ovarian): > 100 µM | TGI (T-47D breast): > 100 µM | TGI (M14 melanoma): > 100 µM | TGI (SF-295 CNS): > 100 µM | TGI (SF-539 CNS): > 100 µM | TGI (SNB-19 CNS): > 100 µM | TGI (KM12 colon): > 100 µM | TGI (CAKI-1 renal): > 100 µM | TGI (UACC-62 melanoma): > 100 µM | TGI (MDA-N): > 100 µM | TGI (SR leukemia): > 100 µM | TGI (NCI-H522 lung): > 100 µM | TGI (ACHN renal): > 100 µM | TGI (BT-549 breast): > 100 µM | TGI (HCT-116 colon): > 100 µM | TGI (TK-10 renal): > 100 µM | TGI (A549 NSCLC): > 100 µM | TGI (786-0 renal): > 100 µM | TGI (SK-MEL-5 melanoma): > 100 µM | TGI (HT29 colon): > 100 µM | TGI (NCI-H23 lung): > 100 µM | TGI (K-562 leukemia): > 100 µM | TGI (HL-60(TB) leukemia): > 100 µM | TGI (MDA-MB-435): > 100 µM | TGI (NCI-H460 lung): > 100 µM | TGI (OVCAR-3 ovarian): > 100 µM

C=Cc1c(C)c(O)cc2c1-c1ccc(O)c(C)c1CC2
TGI (SF-268 CNS): 63.5 µM | TGI (RPMI-8226 leukemia): 56.6 µM | TGI (SK-MEL-2 melanoma): 35.5 µM | TGI (UACC-257 melanoma): 28 µM | TGI (OVCAR-5 ovarian): > 100 µM | TGI (NCI-H226 lung): 43 µM | TGI (OVCAR-8 ovarian): 39.4 µM | TGI (HOP-62 NSCLC): 83.8 µM | TGI (SK-MEL-28 melanoma): 31.5 µM | TGI (COLO 205 colon): 41.8 µM | TGI (RXF 393 renal): 30.2 µM | TGI (MDA-MB-231 breast): 60.6 µM | TGI (MOLT-4 leukemia): 30.6 µM | TGI (DU-145 prostate): 28.5 µM | TGI (MALME-3M melanoma): 45.9 µM | TGI (NCI/ADR-RES ovarian): 71.8 µM | TGI (CCRF-CEM leukemia): 40.6 µM | TGI (LOX IMVI melanoma): 31.8 µM | TGI (A498 renal): 27.7 µM | TGI (OVCAR-4 ovarian): 92 µM | TGI (HS 578T breast): 21.7 µM | TGI (SN12C renal): 43.1 µM | TGI (SK-OV-3 ovarian): 36.2 µM | TGI (MCF7 breast): 38.9 µM | TGI (SW-620 colon): 54.6 µM | TGI (HOP-92 NSCLC): 54.5 µM | TGI (HCT-15 colon): 44.5 µM | TGI (U251 CNS): 34.3 µM | TGI (EKVX NSCLC): 24.3 µM | TGI (HCC-2998 colon): 35.3 µM | TGI (IGROV1 ovarian): 35.6 µM | TGI (T-47D breast): 27.1 µM | TGI (M14 melanoma): 52.5 µM | TGI (SF-295 CNS): 32.2 µM | TGI (SF-539 CNS): 29.3 µM | TGI (SNB-19 CNS): 74.5 µM | TGI (KM12 colon): 30 µM | TGI (CAKI-1 renal): 46.2 µM | TGI (UACC-62 melanoma): 23.1 µM | TGI (MDA-N): 36.6 µM | TGI (SR leukemia): 17.7 µM | TGI (NCI-H522 lung): 43.1 µM | TGI (ACHN renal): 81.1 µM | TGI (BT-549 breast): 59.7 µM | TGI (HCT-116 colon): 28.4 µM | TGI (TK-10 renal): 41.4 µM | TGI (A549 NSCLC): 55.7 µM | TGI (786-0 renal): 34 µM | TGI (SK-MEL-5 melanoma): 33 µM | TGI (HT29 colon): 53.2 µM | TGI (NCI-H23 lung): 41.3 µM | TGI (HL-60(TB) leukemia): 38.6 µM | TGI (MDA-MB-435): 28.2 µM | TGI (NCI-H460 lung): 45 µM | TGI (UO-31 renal): 32.2 µM | TGI (OVCAR-3 ovarian): > 100 µM
